{"source": "ChEMBL document CHEMBL1649287", "about": "“Postantibiotic effect of ceftaroline against gram-positive organisms” (2009)", "type_in_all_cases": "functional", "key": {"Staphylococcus aureus [1]": {"tested_on": "Staphylococcus aureus", "assay": "Antimicrobial activity against methicillin-susceptible, vancomycin-susceptible Staphylococcus aureus sox1 assessed as time required to induce post antibiotic sub-MIC effect at 0.4 times MIC after 1 hr by plate counting method", "settings": "sox1, 1 h"}, "Enterococcus faecalis [2]": {"tested_on": "Enterococcus faecalis", "assay": "Antimicrobial activity against vancomycin-resistant Enterococcus faecalis 266 assessed as time required to induce post antibiotic sub-MIC effect at 0.4 times MIC after 1 hr by plate counting method", "settings": "Enterococcus faecalis, 266, 1 h"}, "Enterococcus faecalis [3]": {"tested_on": "Enterococcus faecalis", "assay": "Antimicrobial activity against vancomycin-resistant Enterococcus faecalis 609 assessed as post antibiotic effect at 10 times MIC after 1 hr by plate counting method", "settings": "Enterococcus faecalis, 609, 1 h"}, "Streptococcus pneumoniae [4]": {"tested_on": "Streptococcus pneumoniae", "assay": "Antimicrobial activity against Penicillin-intermediate Streptococcus pneumoniae s1234 assessed as time required to induce post antibiotic sub-MIC effect at 0.2 times MIC after 1 hr by plate counting method", "settings": "s1234, 1 h"}, "Streptococcus pneumoniae [5]": {"tested_on": "Streptococcus pneumoniae", "assay": "Antimicrobial activity against Penicillin-susceptible Streptococcus pneumoniae s502 assessed as time required to induce post antibiotic sub-MIC effect at 0.2 times MIC after 1 hr by plate counting method", "settings": "s502, 1 h"}, "Enterococcus faecalis [6]": {"tested_on": "Enterococcus faecalis", "assay": "Antimicrobial activity against vancomycin-resistant Enterococcus faecalis 266 assessed as time required to induce sub-MIC effect at 0.4 times MIC after 1 hr by plate counting method", "settings": "Enterococcus faecalis, 266, 1 h"}, "Staphylococcus aureus [7]": {"tested_on": "Staphylococcus aureus", "assay": "Antimicrobial activity against methicillin-resistant, vancomycin-resistant Staphylococcus aureus 770 assessed as time required to induce post antibiotic sub-MIC effect at 0.4 times MIC after 1 hr by plate counting method", "settings": "Staphylococcus aureus, 770, 1 h"}, "Streptococcus pneumoniae [8]": {"tested_on": "Streptococcus pneumoniae", "assay": "Antimicrobial activity against Penicillin-, erythromycin-resistant Streptococcus pneumoniae 37 assessed as time required to induce sub-MIC effect at 0.4 times MIC after 1 hr by plate counting method", "settings": "Streptococcus pneumoniae, 37, 1 h"}, "Enterococcus faecalis [9]": {"tested_on": "Enterococcus faecalis", "assay": "Antimicrobial activity against vancomycin-resistant Enterococcus faecalis 609 assessed as time required to induce post antibiotic sub-MIC effect at 0.3 times MIC after 1 hr by plate counting method", "settings": "Enterococcus faecalis, 609, 1 h"}, "Staphylococcus aureus [10]": {"tested_on": "Staphylococcus aureus", "assay": "Antimicrobial activity against methicillin-resistant, vancomycin-resistant Staphylococcus aureus 770 assessed as time required to induce sub-MIC effect at 0.2 times MIC after 1 hr by plate counting method", "settings": "Staphylococcus aureus, 770, 1 h"}, "Enterococcus faecalis [11]": {"tested_on": "Enterococcus faecalis", "assay": "Antimicrobial activity against vancomycin-sensitive Enterococcus faecalis 20 by microdilution method"}, "Streptococcus pneumoniae [12]": {"tested_on": "Streptococcus pneumoniae", "assay": "Antimicrobial activity against Penicillin-susceptible Streptococcus pneumoniae s502 assessed as time required to induce sub-MIC effect at 0.3 times MIC after 1 hr by plate counting method", "settings": "s502, 1 h"}}}
{"smiles": "CCO/N=C(\\C(=O)N[C@@H]1C(=O)N2C(C(=O)[O-])=C(Sc3nc(-c4cc[n+](C)cc4)cs3)CS[C@H]12)c1nsc(NP(=O)(O)O)n1", "note": "[CEFTAROLINE FOSAMIL]", "values": [{"measurement": "PAE", "setting": "Staphylococcus aureus [1]", "value": 6.2, "unit": "h"}, {"measurement": "time", "setting": "Enterococcus faecalis [2]", "value": "> 10.3", "unit": "h"}, {"measurement": "PAE", "setting": "Enterococcus faecalis [3]", "value": 0.2, "unit": "h"}, {"measurement": "PAE", "setting": "Streptococcus pneumoniae [4]", "value": 1.4, "unit": "h"}, {"measurement": "PAE", "setting": "Streptococcus pneumoniae [5]", "value": 2.7, "unit": "h"}, {"measurement": "time", "setting": "Enterococcus faecalis [6]", "value": 9.5, "unit": "h"}, {"measurement": "time", "setting": "Staphylococcus aureus [7]", "value": 7.1, "unit": "h"}, {"measurement": "time", "setting": "Streptococcus pneumoniae [8]", "value": 0.5, "unit": "h"}, {"measurement": "time", "setting": "Enterococcus faecalis [9]", "value": 3.3, "unit": "h"}, {"measurement": "time", "setting": "Staphylococcus aureus [10]", "value": 0.3, "unit": "h"}, {"measurement": "MIC", "setting": "Enterococcus faecalis [11]", "value": 0.5, "unit": "µg/mL"}, {"measurement": "PAE", "setting": "Streptococcus pneumoniae [12]", "value": 0.3, "unit": "h"}]}
